The test system of one experiment is non-growing UPEC CFT073. Briefly: Dose-dependent killing analysis (CFU spot-plating) of stationary-phase UPEC. The conditions noted are these: for log10(CFU/ml) after treatment: individual replicates; for log10(CFU/ml) of treated nongrowing bacteria (single replicates): before treatment 8.977. It is filed as cell-based, Escherichia coli. A digest of the protocol:
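Non-growing (stationary-phase) UPEC CFT073 treated with compounds in 96-well format at 200 μl, then 10-fold serially diluted in PBS and 10 μl spots plated on LB agar. Plates incubated overnight at 37 °C; colonies counted at lowest resolvable dilution to give CFU. Three biological replicates.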

For experiment [1], the system named is non-growing P. aeruginosa DSM1117. Put plainly: Dose-dependent killing analysis (CFU spot-plating) of stationary-phase P. aeruginosa. It is filed as cell-based, Pseudomonas aeruginosa. As to conditions: for reduction of bacterial counts, stationary phase P. aeruginosa: at 0.5 µM; for log10(CFU/ml) after treatment / killing, average Δlog10(CFU/ml) / log10(CFU/ml) of treated nongrowing bacteria (single replicates): P. aeruginosa; for log10(CFU/ml) after treatment: individual replicates; for log10(CFU/ml) of treated nongrowing bacteria (single replicates): before treatment 8.887. Here is the method:
The cultures were grown and treated for 24 h in 1:4 CA-MHB (pH 7.4).
For survival analysis, bacteria were cultivated as described for the dose–response dilution-regrowth assay. Assays with UPEC were conducted at the CBCS screening facility using 96-well plates with a 200 μl sample volume, and compounds were dispensed using the Echo® (Labcyte) system. P. aeruginosa and S. aureus samples were treated according to the protocol used for the dilution-regrowth experiments. Treated samples were serially diluted 10-fold in PBS, and 10 μl drops were spot-plated onto rectangular LB agar plates using either a Beckman NXP robot (for UPEC) or an Integra VIAFLO96 electronic pipette (for P. aeruginosa and S. aureus). The LB agar plates were incubated overnight at 37 °C and scanned. Colonies were counted at the spots of the lowest dilution where individual colonies could be accurately distinguished. Each colony was manually marked on a separate image layer using the GNU Image Manipulation Program, and counted using NIST’s Integrated Colony Enumerator (NICE 1.4) software. The experiments were performed in three biological replicates.

In experiment [2] the test system is intracellular S. flexneri 5a M90T in TC7 cells. Put plainly: microbe, parasite or virus in culture. It is filed as cell-based, Shigella flexneri. As to conditions: for MIC:IC50 ratio: S. flexneri MIC in TSB versus intracellular IC50; for IC50: Shigella flexneri, TC7, 14 h.
Where [3] appears, read: at 2.5 µM, 1:4 CA-MHB pH 7.4, 24 h treatment.
Setting [4] is: TC7 cells infected with GFP-expressing S. flexneri, 14 h treatment.
Setting [5] is: E. coli in 1:4 CA-MHB (pH 7.4), concentration 1.
The mark [6] stands for this setting: E. coli in 1:4 CA-MHB (pH 7.4), concentration 2.5.
[7] abbreviates: E. coli in 1:4 CA-MHB (pH 7.4), concentration 5.
Where [8] appears, read: E. coli in 1:4 CA-MHB (pH 7.4), concentration 10.
The mark [9] stands for this setting: concentration 2.5, vs CFU before treatment.
Setting [10] is: concentration 10, vs CFU before treatment.
[11] abbreviates: E. coli in 1:4 CA-MHB (pH 7.4), drug concentration 0.25.
[12] abbreviates: E. coli in 1:4 CA-MHB (pH 7.4), drug concentration 0.5.

Data on three molecules can be found in publication PMC11992225, “Antibacterial compounds against non-growing and intracellular bacteria” (npj Antimicrobials and Resistance, 2025).

Structures are written as SMILES. Where “and” joins values, the source holds several entries; their conditions need not be identical. Identical values can stand only once.

Take `CC[C@H]1OC(=O)[C@@](C)(F)C(=O)[C@H](C)[C@@H](O[C@@H]2O[C@H](C)C[C@H](N(C)C)[C@H]2O)[C@](C)(OC)C[C@@H](C)C(=O)[C@H](C)[C@H]2N(CCCCn3cc(-c4cccc(N)c4)nn3)C(=O)O[C@]12C` [Solithromycin]: the “bactericidal activity against non-growing UPEC (CFU counting)” value with non-growing UPEC CFT073 (24 h treatment of stationary phase culture) is “did not kill”. In experiment [1] (24 h treatment), the “reduction of bacterial counts, stationary phase P. aeruginosa” value is given as “more than four”. Besides, in experiment [1] (setting [3]), the “reduction of bacterial counts, non-growing P. aeruginosa” value (from here on “reduction … non-growing P. aeruginosa”) was “more than four”. In addition, the “killing of non-growing P. aeruginosa” value in experiment [1] (at 2.5 µM, 24 h treatment) is listed as greater than 4 log10. The “reduction … non-growing P. aeruginosa” value in experiment [1] (at 10 µM, 24 h treatment) is given as “more than four”. Besides, in experiment [2], the “MIC:IC50 ratio” value is given as greater than 2 and the IC50 was found to be 1.68 µM. For the same molecule, the “Fluorescence intensity (RFU), Mean, 0.0625 x MIC” value in experiment [2] (TC7 cells infected with GFP-expressing S. flexneri, 14 h treatment, 0.0625 x MIC) is 9882.71 RFU. Besides, in experiment [2] (TC7 cells infected with GFP-expressing S. flexneri, 14 h treatment, 0.125 x MIC), the “Fluorescence intensity (RFU), Mean, 0.125 x MIC” value was found to be 9214.08 RFU. In experiment [2] (TC7 cells infected with GFP-expressing S. flexneri, 14 h treatment, 0.25 x MIC), the “Fluorescence intensity (RFU), Mean, 0.25 x MIC” value stood at 4637.62 RFU. Moreover, in experiment [2] (TC7 cells infected with GFP-expressing S. flexneri, 14 h treatment, 0.5 x MIC), the “Fluorescence intensity (RFU), Mean, 0.5 x MIC” value is 2156.75 RFU. In experiment [2] (setting [4]), the “Fluorescence intensity (RFU), Mean, 2 x MIC” value turned out to be 1563.03 RFU; the “Fluorescence intensity (RFU), Mean, 4 x MIC” value amounted to 1560.69 RFU; the “Fluorescence intensity (RFU), Mean, 8 x MIC” value was found to be 1548.25 RFU; the “Fluorescence intensity (RFU), Mean, 16 x MIC” value is 1546 RFU. Moreover, in experiment [2] (setting [4]), the “Fluorescence intensity (RFU), Mean, 32 x MIC” value is on record as 1533.19 RFU and the “Fluorescence intensity (RFU), Mean, MIC” value was 1837.61 RFU.
In the case of `CO/N=C1\CN(c2nc3c(cc2F)c(=O)c(C(=O)O)cn3C2CC2)CC1CN` (centres unmarked) [Gemifloxacin], the “log10(CFU/ml) after treatment” value with non-growing UPEC CFT073 (E. coli in 1:4 CA-MHB (pH 7.4), concentration 0.25) is 9.342 log10(CFU/ml) and 9.204 log10(CFU/ml) and 8.505 log10(CFU/ml); in the experiment with non-growing UPEC CFT073 (E. coli in 1:4 CA-MHB (pH 7.4), concentration 0.5) it was 8.845 log10(CFU/ml) and 8.778 log10(CFU/ml) and 8.000 log10(CFU/ml); in the experiment on non-growing UPEC CFT073 (setting [5]) it was 8.699 log10(CFU/ml) and 8.079 log10(CFU/ml) and 7.301 log10(CFU/ml); in the experiment with non-growing UPEC CFT073 (setting [6]), 8.230 log10(CFU/ml) and 7.602 log10(CFU/ml) and 7.301 log10(CFU/ml); in the experiment on non-growing UPEC CFT073 (setting [7]), 7.903 log10(CFU/ml) and 7.415 log10(CFU/ml) and 7.322 log10(CFU/ml); with non-growing UPEC CFT073 (setting [8]) it was 8.146 log10(CFU/ml) and 7.041 log10(CFU/ml) and 6.602 log10(CFU/ml). Besides, the “log10(CFU/ml) after treatment” value in the experiment on non-growing UPEC CFT073 (E. coli in LPM (pH 5.5), concentration 0.25) was 6.778 log10(CFU/ml) and 7.146 log10(CFU/ml) and 8.322 log10(CFU/ml); with non-growing UPEC CFT073 (E. coli in LPM (pH 5.5), concentration 0.5), 7.000 log10(CFU/ml) and 7.255 log10(CFU/ml) and 8.301 log10(CFU/ml); in the experiment on non-growing UPEC CFT073 (E. coli in LPM (pH 5.5), concentration 1), 7.041 log10(CFU/ml) and 7.362 log10(CFU/ml) and 8.079 log10(CFU/ml); in the experiment with non-growing UPEC CFT073 (E. coli in LPM (pH 5.5), concentration 2.5), 6.778 log10(CFU/ml) and 7.255 log10(CFU/ml) and 8.230 log10(CFU/ml); in the experiment on non-growing UPEC CFT073 (E. coli in LPM (pH 5.5), concentration 5), 7.230 log10(CFU/ml) and 7.380 log10(CFU/ml) and 8.146 log10(CFU/ml); in the experiment with non-growing UPEC CFT073 (E. coli in LPM (pH 5.5), concentration 10) it was 7.176 log10(CFU/ml) (2×) and 8.230 log10(CFU/ml). Also, the “log10(CFU/ml) after treatment” value in experiment [1] (concentration 0.1) was 8.477 log10(CFU/ml) and 8.778 log10(CFU/ml) and 8.114 log10(CFU/ml); in experiment [1] (concentration 0.5), 7.699 log10(CFU/ml) (2×) and 7.477 log10(CFU/ml); in experiment [1] (concentration 2.5), “=<4 log10(CFU/ml) (2×) and 4.954 log10(CFU/ml)”; in experiment [1] (concentration 10), “=<4 log10(CFU/ml) (2×) and 4.477 log10(CFU/ml)”. The “killing, average Δlog10(CFU/ml)” value was 0.431 log10(CFU/ml) in experiment [1] (concentration 0.1, vs CFU before treatment); 1.262 log10(CFU/ml) in experiment [1] (concentration 0.5, vs CFU before treatment); 4.569 log10(CFU/ml) in experiment [1] (setting [9]); 4.728 log10(CFU/ml) in experiment [1] (setting [10]). For the same molecule, the “reduction … non-growing P. aeruginosa” value in experiment [1] (setting [3]) is reported as “more than four”. Further, the IC50 in experiment [2] worked out at 0.022 µM. Besides, the “Fluorescence intensity (RFU), Mean, 2 x MIC” value in experiment [2] (setting [4]) is recorded as 4953.61 RFU. Further, the “Fluorescence intensity (RFU), Mean, 4 x MIC” value in experiment [2] (setting [4]) is recorded as 3661.36 RFU. The “Fluorescence intensity (RFU), Mean, 8 x MIC” value in experiment [2] (setting [4]) is 3159.39 RFU. For the same molecule, the “Fluorescence intensity (RFU), Mean, 16 x MIC” value in experiment [2] (setting [4]) was 3090.56 RFU. Also, the “Fluorescence intensity (RFU), Mean, 32 x MIC” value in experiment [2] (setting [4]) stood at 2706.11 RFU. Moreover, the “Fluorescence intensity (RFU), Mean, MIC” value in experiment [2] (setting [4]) came to 6688.44 RFU.
Take `Cc1oc(=O)oc1CN1CCN(c2cc3c(cc2F)c(=O)c(C(=O)O)c2n3C(C)S2)CC1` (centres unmarked) [Prulifloxacin]: the “log10(CFU/ml) after treatment” value in the experiment with non-growing UPEC CFT073 (setting [5]) is 9.041 log10(CFU/ml) (2×) and 8.398 log10(CFU/ml); with non-growing UPEC CFT073 (setting [6]), 8.845 log10(CFU/ml) and 8.230 log10(CFU/ml) and 7.903 log10(CFU/ml); in the experiment on non-growing UPEC CFT073 (setting [7]), 8.477 log10(CFU/ml) and 7.699 log10(CFU/ml) and 7.176 log10(CFU/ml); in the experiment with non-growing UPEC CFT073 (setting [8]) it was 7.903 log10(CFU/ml) and 7.176 log10(CFU/ml) (2×); in experiment [1] (concentration 2.5) it was “=<4 log10(CFU/ml) (2×) and 4.602 log10(CFU/ml)”; in experiment [1] (concentration 10), “=<4 log10(CFU/ml)”. Besides, the “killing, average Δlog10(CFU/ml)” value was 0.155 log10(CFU/ml) with non-growing UPEC CFT073 (setting [11]); 0.462 log10(CFU/ml) in the experiment on non-growing UPEC CFT073 (setting [12]); 4.687 log10(CFU/ml) in experiment [1] (setting [9]); 4.887 log10(CFU/ml) in experiment [1] (setting [10]); 0.555 log10(CFU/ml) in experiment [1] (drug concentration 0.1); 3.168 log10(CFU/ml) in experiment [1] (drug concentration 0.5). Further, the “log10(CFU/ml) of treated nongrowing bacteria (single replicates)” value in the experiment with non-growing UPEC CFT073 (setting [11]) was 9.322 log10(CFU/ml) and 8.845 log10(CFU/ml) and 8.301 log10(CFU/ml); with non-growing UPEC CFT073 (setting [12]), 8.903 log10(CFU/ml) and 8.301 log10(CFU/ml) and 8.342 log10(CFU/ml); in experiment [1] (drug concentration 0.1) it was 8.477 log10(CFU/ml) (2×) and 8.041 log10(CFU/ml); in experiment [1] (drug concentration 0.5), 5.778 log10(CFU/ml) and 6.602 log10(CFU/ml) and 4.778 log10(CFU/ml). For the same molecule, the “reduction of bacterial counts, stationary phase P. aeruginosa” value in experiment [1] (24 h treatment) is “more than four”. Besides, in experiment [1] (setting [3]), the “reduction … non-growing P. aeruginosa” value is given as “more than four”. For the same molecule, the “MIC:IC50 ratio” value in experiment [2] is “below 0.5”. The IC50 in experiment [2] was determined as 0.147 µM. In addition, the “Fluorescence intensity (RFU), Mean, 2 x MIC” value in experiment [2] (setting [4]) worked out at 8759.64 RFU. In addition, in experiment [2] (setting [4]), the “Fluorescence intensity (RFU), Mean, 4 x MIC” value came to 6976.67 RFU. The “Fluorescence intensity (RFU), Mean, 8 x MIC” value in experiment [2] (setting [4]) is 4116.28 RFU. Further, in experiment [2] (setting [4]), the “Fluorescence intensity (RFU), Mean, 16 x MIC” value came to 3279.44 RFU. In addition, in experiment [2] (setting [4]), the “Fluorescence intensity (RFU), Mean, 32 x MIC” value is 2886.92 RFU. Also, the “Fluorescence intensity (RFU), Mean, MIC” value in experiment [2] (setting [4]) was 8494.31 RFU.
